Laboratory results: patent US20140113898A1, “BISARYLSULFONE AND DIALKYLARYLSULFONE COMPOUNDS AS CALCIUM CHANNEL BLOCKERS” (Zalicus Pharmaceuticals Ltd., priority 2010, published 2014)
Read-outs that look alike come from different tables or passages of the source.

Key:
Assay type in all cases: cell-based
CaV3.1 = target: T1, CaV3.1 (Homo sapiens, UniProt O43497); assay: High-throughput CaV3.1 T-type FLIPR fluorescent assay; conditions: Fluo-4 FLIPR
T1 construct: expressed in transfected cells; host or cells: unnamed doxycycline-inducible cell line
Description: (§1) Cells were plated in 384-well, clear-bottom, black-walled, poly-D-lysine coated plates (Becton Dickinson, Franklin Lake, N.J.) 2 days prior to use in the FLIPR assay. 100 μL of cells (2.0×10^6 cell/mL) containing doxycyline (Sigma-Aldrich, 1.5 μg/mL; to induce channel expression) were added to each well using a Multidrop (Thermo Scientific, Waltham, Mass.) and were maintained in 5% CO2 incubator at 37° C. On the morning of the assay, cells were transferred to a 5% CO2 incubator at 29° C.
Cells were washed with a wash buffer containing (in mM): 118 NaCl, 18.4 HEPES, 11.7 D-glucose, 0.05 CaCl2, 0.5 MgSO4, 1 KCl, and 1.2 KH2PO4, with the pH adjusted to 7.2 with NaOH. 4.4 μM of the fluorescent indicator dye, Fluo-4 (Invitrogen), prepared in pluronic acid
(Sigma-Aldrich), was loaded into the wells and incubated for 45 minutes at 29° C. in 5% CO2. Cells were then rinsed with the following low Ca^2+ buffer (in mM): 0.34 Na2HPO4, 4.2 NaHCO3, 0.44 KH2PO4, 0.41 MgSO4, 0.49 MgCl2-6H2O, 20 HEPES, 5.5 D-Glucose, 137 NaCl, 5.3 KCl, and 0.001 CaCl2, with 0.1% BSA and the pH adjusted to 7.2 with NaOH. Concentration-dependent response curves were generated from 5 mM stock solutions prepared in DMSO (Sigma-Aldrich) and diluted in the buffer containing low Ca^2+ and incubated for 20 minutes at 29° C. in 5% CO2. Calcium entry was evoked with an addition of (in mM): 0.34 Na2HPO4, 4.2 NaHCO3, 0.44 KH2PO4, 0.41 MgSO4, 0.49 MgCl2-6H2O, 20 HEPES, 5.5 D-Glucose, 137 NaCl, 5.3 KCl, and 6 CaCl2, with 0.1% BSA and the pH adjusted to 7.2 with NaOH. A change in the Fluo-4 fluorescence signal was assessed using FLIPR^TETRA™ instrument (Molecular Devices, Sunnyvale, Calif.) for 3 minutes following the elevation of extracellular KCl using an illumination wavelength of 470-495 nm with emissions recorded at 515-575 nm.
(§2) Concentration-dependent response curves were obtained by comparing the fluorescence signal in the presence of compound and fitted with a logistic function (1) to obtain the concentration that inhibited 50% (IC50) of the RLU signal using OriginPro v.7.5 software (OriginLab, Northampton, Mass.).
(§3) To assess the quality of the FLIPR assays the Z-factor (2) was used to quantify the suitability of the assay conditions using the following equation: […]
(§4) Data are expressed as mean and standard deviation (SD).

CaV3.2 = target: T2, CaV3.2 (Homo sapiens, UniProt O95180); assay: High-throughput CaV3.2/Kir2.3 T-type FLIPR fluorescent assay; conditions: Fluo-4 FLIPR, closed or inactivated state not stated
T2 construct: expressed in transfected cells; host or cells: unnamed doxycycline-inducible cell line
Description: as §1, with “µL” for “μL”, “(1.2×10^6” for “(2.0×10^6”
Cells were washed with a wash buffer containing (in mM): 118 NaCl, 18.4 HEPES, 11.7 D-glucose, 2 CaCl2, 0.5 MgSO4, 4.7 KCl, and 1.2 KH2PO4, with the pH adjusted to 7.2 with
NaOH. 4.4 μM of the fluorescent indicator dye Fluo-4 (Invitrogen) prepared in pluronic acid (Sigma-Aldrich) was loaded into the wells and incubated for 45 minutes at 29° C. in 5% CO2. Cells were then rinsed with either a 2 mM KCl closed-state buffer (in mM: 138.5 NaCl, 10 HEPES, 10 D-glucose, 1 CaCl2, and 2 KCl, with the pH adjusted to 7.4 with NaOH) when performing the closed-state assay or 7.6 mM KCl inactivated-state buffer (in mM: 130.9 NaCl, 10 HEPES, 10 D-glucose, 1 CaCl2, and 7.6 mM KCl, with the pH adjusted to 7.4 with NaOH) when performing the inactivated-state assay. Concentration-dependent response curves were generated from 5 mM stock solutions prepared in DMSO (Sigma-Aldrich), diluted in either the 2 mM KCl buffer or 7.6 mM KCl buffer, and incubated for 20 minutes at 29° C. in 5% CO2. Calcium entry was evoked with an addition of either 12 mM KCl stimulation buffer (in mM: 128.5 NaCl, 10 HEPES, 10 D-glucose, 1 CaCl2, and 12 KCl, with the pH adjusted to 7.4 with NaOH) or 14.5 mM KCl stimulation buffer (in mM: 126 NaCl, 10 HEPES, 10 D-glucose, 1 CaCl2, and 14.5 KCl, with the pH adjusted to 7.4 with NaOH) for the closed-state or inactivated-state assay respectively. A change in the Fluo-4 fluorescence signal was assessed using FLIPR^TETRA™ instrument (Molecular Devices, Sunnyvale, Calif.) for 3 minutes following the elevation of extracellular KCl using an illumination wavelength of 470-495 nm with emissions recorded at 515-575 nm.
as §2, §3, §4

CaV2.2 = target: T3, CaV2.2 (Homo sapiens, UniProt Q00975); assay: High-throughput CaV2.2/Kir2.3 FLIPR fluorescent assay; conditions: Fluo-4 FLIPR, closed or inactivated state not stated, read-out: FLIPR data CaV2.2
T3 construct: expressed in transfected cells; host or cells: unnamed doxycycline-inducible cell line
In short: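 Doxycycline-induced cells moved to 29 °C on assay day and were loaded with 4.4 μM Fluo-4. They were held in 2 mM KCl (closed state) or 12.5 mM KCl (inactivated state) buffer, pH 7.4, then depolarized with 130 mM KCl. Fluorescence was read 3 min on FLIPR, and IC50 was obtained from logistic fits.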

T2 sequence (O95180 whole entry): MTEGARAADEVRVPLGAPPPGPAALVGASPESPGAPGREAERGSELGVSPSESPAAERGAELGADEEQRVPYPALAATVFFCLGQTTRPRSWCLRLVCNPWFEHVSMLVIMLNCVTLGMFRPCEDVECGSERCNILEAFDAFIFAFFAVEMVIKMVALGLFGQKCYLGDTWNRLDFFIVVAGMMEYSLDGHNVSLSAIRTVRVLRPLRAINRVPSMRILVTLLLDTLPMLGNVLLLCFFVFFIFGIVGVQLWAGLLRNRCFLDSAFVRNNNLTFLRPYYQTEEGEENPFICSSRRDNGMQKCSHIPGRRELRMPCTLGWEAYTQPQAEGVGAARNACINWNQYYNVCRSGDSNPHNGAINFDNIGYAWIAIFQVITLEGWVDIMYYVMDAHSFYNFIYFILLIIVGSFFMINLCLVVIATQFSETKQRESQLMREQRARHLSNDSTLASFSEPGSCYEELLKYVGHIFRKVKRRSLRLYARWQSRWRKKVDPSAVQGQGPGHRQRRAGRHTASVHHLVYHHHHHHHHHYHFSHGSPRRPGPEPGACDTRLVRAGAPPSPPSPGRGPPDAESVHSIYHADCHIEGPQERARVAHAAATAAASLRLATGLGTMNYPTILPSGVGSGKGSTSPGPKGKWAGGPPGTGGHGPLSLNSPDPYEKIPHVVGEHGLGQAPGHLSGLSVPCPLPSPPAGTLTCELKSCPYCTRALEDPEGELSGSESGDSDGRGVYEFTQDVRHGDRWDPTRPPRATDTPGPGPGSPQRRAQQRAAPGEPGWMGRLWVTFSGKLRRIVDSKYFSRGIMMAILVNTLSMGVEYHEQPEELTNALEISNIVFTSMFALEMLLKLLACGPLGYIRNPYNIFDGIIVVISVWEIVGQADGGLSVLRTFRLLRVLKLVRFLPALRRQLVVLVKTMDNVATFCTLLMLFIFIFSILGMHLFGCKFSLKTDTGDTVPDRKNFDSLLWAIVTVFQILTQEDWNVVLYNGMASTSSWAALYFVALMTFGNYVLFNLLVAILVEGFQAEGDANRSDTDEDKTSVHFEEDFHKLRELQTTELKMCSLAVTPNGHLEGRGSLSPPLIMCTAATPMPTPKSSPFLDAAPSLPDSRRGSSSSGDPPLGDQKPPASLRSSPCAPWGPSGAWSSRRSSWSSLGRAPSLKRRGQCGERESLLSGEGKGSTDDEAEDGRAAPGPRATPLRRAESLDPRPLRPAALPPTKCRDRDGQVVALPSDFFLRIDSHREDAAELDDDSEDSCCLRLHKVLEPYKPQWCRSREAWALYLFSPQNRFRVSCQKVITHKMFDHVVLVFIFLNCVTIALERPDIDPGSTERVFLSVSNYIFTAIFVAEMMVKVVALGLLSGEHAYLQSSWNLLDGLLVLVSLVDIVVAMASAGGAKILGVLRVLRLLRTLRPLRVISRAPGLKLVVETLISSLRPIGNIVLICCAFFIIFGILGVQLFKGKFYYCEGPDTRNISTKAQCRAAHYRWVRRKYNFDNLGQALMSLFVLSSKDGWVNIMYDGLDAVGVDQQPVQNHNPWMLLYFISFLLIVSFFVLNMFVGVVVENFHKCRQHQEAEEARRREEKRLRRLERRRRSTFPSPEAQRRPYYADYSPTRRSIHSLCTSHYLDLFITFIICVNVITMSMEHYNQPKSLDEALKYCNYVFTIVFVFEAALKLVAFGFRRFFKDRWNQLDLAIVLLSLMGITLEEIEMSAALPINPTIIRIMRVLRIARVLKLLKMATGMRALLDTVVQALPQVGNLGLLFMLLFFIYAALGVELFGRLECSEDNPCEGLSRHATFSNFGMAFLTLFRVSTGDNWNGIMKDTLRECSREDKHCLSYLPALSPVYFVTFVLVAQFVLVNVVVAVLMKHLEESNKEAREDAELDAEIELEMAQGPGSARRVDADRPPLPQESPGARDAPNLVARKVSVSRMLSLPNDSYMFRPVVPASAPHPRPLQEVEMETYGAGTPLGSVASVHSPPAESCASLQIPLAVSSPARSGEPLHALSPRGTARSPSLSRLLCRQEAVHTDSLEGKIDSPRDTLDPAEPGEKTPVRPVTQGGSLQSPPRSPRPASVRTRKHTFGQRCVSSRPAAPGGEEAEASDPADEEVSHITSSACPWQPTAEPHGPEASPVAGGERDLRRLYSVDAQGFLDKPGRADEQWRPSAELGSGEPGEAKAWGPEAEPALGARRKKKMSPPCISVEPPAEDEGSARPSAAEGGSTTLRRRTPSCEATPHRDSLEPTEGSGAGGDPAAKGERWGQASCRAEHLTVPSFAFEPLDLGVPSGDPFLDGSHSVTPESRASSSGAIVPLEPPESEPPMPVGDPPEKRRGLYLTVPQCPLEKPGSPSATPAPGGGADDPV
T1 sequence (O43497 whole entry): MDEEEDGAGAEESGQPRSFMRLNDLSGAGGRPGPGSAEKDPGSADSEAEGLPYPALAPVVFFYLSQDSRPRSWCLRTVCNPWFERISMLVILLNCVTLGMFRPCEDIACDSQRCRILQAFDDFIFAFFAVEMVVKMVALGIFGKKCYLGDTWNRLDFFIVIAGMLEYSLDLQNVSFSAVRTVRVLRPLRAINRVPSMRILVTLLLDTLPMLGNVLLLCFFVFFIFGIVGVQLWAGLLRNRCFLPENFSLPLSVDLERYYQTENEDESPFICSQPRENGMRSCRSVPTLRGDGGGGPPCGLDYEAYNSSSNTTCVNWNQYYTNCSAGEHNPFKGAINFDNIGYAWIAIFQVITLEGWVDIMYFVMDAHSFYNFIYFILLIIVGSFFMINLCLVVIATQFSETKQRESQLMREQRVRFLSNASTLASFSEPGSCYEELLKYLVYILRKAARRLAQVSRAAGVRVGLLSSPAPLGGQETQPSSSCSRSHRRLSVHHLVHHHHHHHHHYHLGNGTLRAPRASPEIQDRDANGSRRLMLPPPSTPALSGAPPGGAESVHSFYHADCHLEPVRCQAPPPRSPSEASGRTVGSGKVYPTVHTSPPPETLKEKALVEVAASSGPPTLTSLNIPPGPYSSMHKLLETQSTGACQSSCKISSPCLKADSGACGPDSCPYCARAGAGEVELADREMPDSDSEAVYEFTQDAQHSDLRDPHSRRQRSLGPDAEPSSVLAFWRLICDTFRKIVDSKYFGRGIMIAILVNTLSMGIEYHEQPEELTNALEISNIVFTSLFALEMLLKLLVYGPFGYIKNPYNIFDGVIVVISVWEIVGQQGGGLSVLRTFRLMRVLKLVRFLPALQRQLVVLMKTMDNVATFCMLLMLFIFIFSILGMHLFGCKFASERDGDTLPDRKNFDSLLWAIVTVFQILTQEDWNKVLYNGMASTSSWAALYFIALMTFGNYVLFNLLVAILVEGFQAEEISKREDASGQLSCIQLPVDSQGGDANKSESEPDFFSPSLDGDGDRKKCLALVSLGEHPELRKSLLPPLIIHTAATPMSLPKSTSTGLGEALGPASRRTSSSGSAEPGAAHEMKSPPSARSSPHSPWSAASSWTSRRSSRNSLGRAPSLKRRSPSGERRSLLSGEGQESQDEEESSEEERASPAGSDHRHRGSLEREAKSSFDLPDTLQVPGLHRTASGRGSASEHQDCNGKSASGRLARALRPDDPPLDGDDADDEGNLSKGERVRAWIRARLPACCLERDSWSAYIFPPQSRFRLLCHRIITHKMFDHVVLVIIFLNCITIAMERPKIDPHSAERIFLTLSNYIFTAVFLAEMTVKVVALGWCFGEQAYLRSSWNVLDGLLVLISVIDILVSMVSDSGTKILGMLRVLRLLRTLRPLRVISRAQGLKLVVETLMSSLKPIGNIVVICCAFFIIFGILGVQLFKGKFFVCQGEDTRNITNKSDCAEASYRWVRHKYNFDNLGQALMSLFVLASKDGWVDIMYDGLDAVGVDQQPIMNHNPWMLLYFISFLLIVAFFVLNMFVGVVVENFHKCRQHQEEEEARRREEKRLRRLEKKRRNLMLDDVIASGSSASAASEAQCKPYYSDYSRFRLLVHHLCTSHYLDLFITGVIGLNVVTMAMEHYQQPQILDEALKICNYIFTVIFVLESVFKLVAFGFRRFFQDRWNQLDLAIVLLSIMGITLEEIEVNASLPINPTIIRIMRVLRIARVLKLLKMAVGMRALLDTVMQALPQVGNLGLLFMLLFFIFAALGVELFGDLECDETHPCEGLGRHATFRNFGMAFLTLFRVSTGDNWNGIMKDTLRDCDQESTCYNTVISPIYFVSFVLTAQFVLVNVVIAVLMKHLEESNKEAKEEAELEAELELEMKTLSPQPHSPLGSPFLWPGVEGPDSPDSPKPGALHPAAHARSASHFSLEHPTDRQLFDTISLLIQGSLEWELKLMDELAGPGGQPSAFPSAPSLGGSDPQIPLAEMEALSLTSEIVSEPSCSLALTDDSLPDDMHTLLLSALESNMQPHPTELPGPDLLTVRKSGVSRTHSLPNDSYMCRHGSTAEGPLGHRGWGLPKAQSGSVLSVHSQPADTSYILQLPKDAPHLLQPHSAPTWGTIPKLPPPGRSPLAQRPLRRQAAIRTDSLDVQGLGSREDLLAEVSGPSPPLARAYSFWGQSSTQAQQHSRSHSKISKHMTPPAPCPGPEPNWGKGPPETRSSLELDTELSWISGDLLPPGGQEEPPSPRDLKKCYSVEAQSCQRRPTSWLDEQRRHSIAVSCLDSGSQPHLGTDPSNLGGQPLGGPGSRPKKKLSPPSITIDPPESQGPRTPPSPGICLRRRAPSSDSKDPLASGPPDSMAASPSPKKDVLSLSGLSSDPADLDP

Row | IC50 (CaV3.1; Table 4) [nM] | IC50 (CaV3.2; Table 4) [nM] | IC50 (CaV2.2; Table 4) [nM] | IC50 (CaV3.1; Table 5) [nM] | IC50 (CaV2.2; Table 5) [nM] | IC50 (CaV3.2; Table 5) [nM] | Structure (SMILES)
1 | 1290 | 620 | 760 | – | – | – | O=C(NCc1ccc(S(=O)(=O)c2cccc(C(F)(F)F)c2)cc1)c1ccc(Cl)c(F)c1 [Compound 1, 4-chloro-3-fluoro-N-(4-((3-(trifluoromethyl)phenyl)sulfonyl)benzyl)benzamide]
2 | 1500 | 850 | 950 | – | – | – | O=C(NCc1ccc(S(=O)(=O)c2cccc(C(F)(F)F)c2)cc1)c1cc(F)cc(Cl)c1 [Compound 2, 3-chloro-5-fluoro-N-(4-((3-(trifluoromethyl)phenyl)sulfonyl)benzyl)benzamide]
3 | 1340 | 650 | 510 | – | – | – | O=C(NCc1ccc(S(=O)(=O)c2cccc(C(F)(F)F)c2)cc1)c1ccc(C(F)(F)F)nc1 [Compound 3, 6-(trifluoromethy)-N-(4-((3-(trifluoromethyl)phenyl)sulfonyl)benzyl)nicotinamide]
4 | 1480 | 380 | 450 | – | – | – | O=C(NCc1ccc(S(=O)(=O)c2cccc(C(F)(F)F)c2)cc1)c1ccc(C(F)(F)F)cn1 [Compound 4, 5-(trifluoromethy)-N-(4-((3-(trifluoromethyl)phenyl)sulfonyl)benzyl)picolinamide]
5 | 1350 | 2370 | 470 | – | – | – | CS(=O)(=O)c1cc(C(F)(F)F)cnc1C(=O)NCc1ccc(S(=O)(=O)c2cccc(C(F)(F)F)c2)cc1 [Compound 5, 3-(methylsulfonyl)-5-(trifluoromethyl)-N-(4-((3-(trifluoromethyl)phenyl)sulfonyl)benzyl)picolinamide]
6 | 2340 | 1510 | 710 | – | – | – | CS(=O)(=O)c1nc(C(F)(F)F)ccc1C(=O)NCc1ccc(S(=O)(=O)c2cccc(C(F)(F)F)c2)cc1 [Compound 6, 2-(methylsulfonyl)-6-(trifluoromethyl)-N-(4-((3-(trifluoromethyl)phenyl)sulfonyl)benzyl)nicotinamide]
7 | 1330 | 510 | 390 | – | – | – | Cn1nc(C(F)(F)F)cc1C(=O)NCc1ccc(S(=O)(=O)c2cccc(C(F)(F)F)c2)cc1 [Compound 7, 1-methyl-3-(trifluoromethyl)-N-(4-((3-(trifluoromethyl)phenyl)sulfonyl)benzyl)-1H-pyrazole-5-carboxamide]
8 | 2140 | 920 | 510 | – | – | – | O=C(NCc1ccc(S(=O)(=O)c2cccc(C(F)(F)F)c2)cc1)c1cnc(C(F)(F)F)nc1 [Compound 8, 2-(trifluoromethyl)-N-(4-((3-(trifluoromethyl)phenyl)sulfonyl)benzyl)pyrimidine-5-carboxamide]
9 | 2850 | 1690 | 490 | – | – | – | O=C(NCc1ccc(S(=O)(=O)c2cccc(C(F)(F)F)c2)cc1)c1ccnc(C(F)(F)F)n1 [Compound 9, 2-(trifluoromethyl)-N-(4-((3-(trifluoromethyl)phenyl)sulfonyl)benzyl)pyrimidine-4-carboxamide]
10 | 1970 | 980 | 690 | – | – | – | CS(=O)(=O)c1cc(C(=O)NCc2ccc(S(=O)(=O)c3cccc(C(F)(F)F)c3)cc2)cc(C(F)(F)F)n1 [Compound 10, 2-(methylsulfonyl)-6-(trifluoromethyl)-N-(4-((3-(trifluoromethyl)phenyl)sulfonyl)benzyl)isonicotinamide]
11 | 580 | – | 440 | – | – | – | N[C@@H](C(=O)NCc1ccc(S(=O)(=O)c2cccc(C(F)(F)F)c2)cc1)c1ccccc1 [Compound 63, (R)-2-amino-2-phenyl-N-(4-((3-(trifluoromethyl)phenyl)sulfonyl)benzyl)acetamide]
12 | – | – | – | 5690 | 1020 | – | CC(C)(C(=O)Nc1ccc(Oc2ccc(C(F)(F)F)cn2)nc1)S(=O)(=O)c1cccc(C(F)(F)F)c1 [Compound 120, 2-methyl-2-((3-(trifluoromethyl)phenyl)sulfonyl)-N-(6-((5-(trifluoromethyl)pyridin-2-yl)oxy)pyridin-3-yl)propanamide]
13 | – | – | – | – | 1530 | 6500 | CC(C)(CNC(=O)c1ccc(Cl)cc1)S(=O)(=O)c1cccc(C(F)(F)F)c1 [Compound 165, 4-chloro-N-(2-methyl-2-((3-(trifluoromethyl)phenyl)sulfonyl)propyl)benzamide]
14 | – | – | – | – | 1310 | 9680 | COc1ccc(S(=O)(=O)N2CCOCC2)cc1C(=O)NCC(C)(C)S(=O)(=O)c1cccc(C(F)(F)F)c1 [Compound 166, 2-methoxy-N-(2-methyl-2-((3-(trifluoromethyl)phenyl)sulfonyl)propyl)-5-(morpholinosulfonyl)benzamide]
15 | – | – | – | – | 1020 | 5160 | Cc1cc(Cl)ccc1C(=O)NCC(C)(C)S(=O)(=O)c1cccc(C(F)(F)F)c1 [Compound 168, 4-chloro-2-methyl-N-(2-methyl-2-((3-(trifluoromethyl)phenyl)sulfonyl)propyl)benzamide]
16 | – | – | – | – | 1860 | 7210 | COc1cc(C)ccc1C(=O)NCC(C)(C)S(=O)(=O)c1cccc(C(F)(F)F)c1 [Compound 170, 2-methoxy-4-methyl-N-(2-methyl-2-((3-(trifluoromethyl)phenyl)sulfonyl)propyl)benzamide]
17 | – | – | – | – | 3190 | 5320 | CC(C)(CNC(=O)c1ccc(C(F)(F)F)nc1)S(=O)(=O)c1cccc(C(F)(F)F)c1 [Compound 175, N-(2-methyl-2-((3-(trifluoromethyl)phenyl)sulfonyl)propyl)-6-(trifluoromethyl)nicotinamide]
18 | – | – | – | – | 1310 | 5340 | CC(C)(CNC(=O)c1cncc(C(F)(F)F)c1)S(=O)(=O)c1cccc(C(F)(F)F)c1 [Compound 176, N-(2-methyl-2-((3-(trifluoromethyl)phenyl)sulfonyl)propyl)-5-(trifluoromethyl)nicotinamide]
19 | – | – | – | – | 420 | 5540 | CC(C)(CCN1Cc2nc(C(F)(F)F)ccc2C1=O)S(=O)(=O)c1cccc(C(F)(F)F)c1 [Compound 188, 6-(3-methyl-3-((3-(trifluoromethyl)phenyl)sulfonyl)butyl)-2-(trifluoromethyl)-6,7-dihydro-5H-pyrolo[3,4-b]pyridine-5-one]
